Data taken from US6867179B1, “Methods of inducing hair growth and coloration” (Trustees of Boston University, priority 1994, dated 2005).

Assays:
Type in all cases: cell-based, human
Bcl-2 protein = assay: Keratinocyte BCL-2 level after NGF deprivation (Western blot); conditions: medium lacking BPE, 50 ng/ml NGF versus diluent, 24 and 48 hours
Procedure: To determine if NGF affects BCL-2 protein level in keratinocytes, cells were maintained in Keratinocyte basal medium until 60-80% confluent. Then cells were provided medium lacking BPE to eliminate exogenous NGF. Duplicate cultures were provided 50 ng/ml NGF or diluent alone.
Total keratinocyte proteins were extracted, and BCL-2 levels were determined by Western blot analysis as in Example 6.

MM4 cells = assay: MM4 cell yields after UV or sham irradiation with growth factor supplementation; conditions: UV 10 mJ/cm^2, 50 ng/ml NGF, 4 experiments
Procedure: Melanocytes or MM4 cells were plated in 60 mm diameter tissue culture dishes. Melanocytes were maintained in Medium 199 supplemented with 7% fetal bovine serum (FBS), 10 ng/ml epidermal growth factor (Collaborative Research), […] (Sigma), […] (Collaborative Research), […] (Sigma), 1.4×10^−6 M hydrocortisone (Calbiochem), […] (Calbiochem), and 10 ng/ml basic fibroblast growth factor (Collaborative Research) (basal melanocyte medium). MM4 cells were maintained in 55.3% DME, 27.6% L15, 15% FBS, 1% nonessential amino acids (GIBCO BRL), 2 mM glutamine and 10 µg/ml insulin. After 24 hours, medium was replaced by phosphate buffered saline (PBS) and cells were irradiated using a 1 KW xenon arc solar simulator (XMN 1000-21, Optical Radiation Corp., Azuza, Calif.) with 5, 10, or 25 mJ/cm^2 UV through the petri dish plastic cover. Irradiance was adjusted to 4×10^−5 UV cm^−2 and metered with a research radiometer (model IL1700A, International Light, Newburyport, Mass.) fitted with a UVB probe at 285 Å 5 nm. After UV irradiation, cells were maintained in their respective media without FBS for 2 days (MM4 cells) or 3 days (melanocytes) and processed as indicated. Sham irradiated control cultures were handled identically but laced under a dark cloth adjacent to the UV beam.
FIGS. 2B and 2D show MM4 cell yields 24-72 hours after a single UV irradiation of 10 mJ/cm^2. FIGS. 2C and 2e show MM4 cell yields 24-72 hours after sham irradiation. Cells in FIGS. 2B and 2C were supplemented with 50 ng/ml NGF or diluent alone. Cells in FIGS. 2D and 2E were supplemented with 50 ng/ml bFGF or diluent alone.
Melanocytes or MM4 cells were plated as described in Example 1. After irradiation, melanocytes were maintained in basal melanocyte medium lacking FBS and hydrocortisone, with 50 ng/ml NGF or diluent alone (melanocyte medium). MM4 cells were maintained in DME supplemented with 50 ng/ml NGF or diluent alone.

BCL-2 = BCL-2 antisense oligonucleotides in UV-irradiated MM4 cells with or without NGF; conditions: UV 10 mJ/cm^2, NGF 50 ng/ml, 48 hours
Excerpt: Purified phosphorothioate oligonucleotides were purchased from Quality Controlled Biochemicals, Inc. (Hopkinton, Mass.). 19 mer oligonucleotides were designed based on the published human BCL-2 sequence (Tsujimoto, Y. and Croce, C. M., Proc. Natl. Acad. Sci. USA, 83:5214-5218 (1986)). The sequence chosen was directed against the […] of the coding region starting 4 bases before the methionine initiation site. Nonsense oligonucleotides were used as control. Sequences used (all written 5′ to 3′): Antisense CCCAGCGTGCGCCATCCTT (SEQ ID NO: 7); Nonsense CTCCCACTCGTCATTCGAC (SEQ ID NO: 8).
MM4 cells were maintained in 60 mm diameter tissue culture dishes in 55.3% DME, 27.6% L15, 15% FBS, 1% nonessential amino acids (GIBCO BRL), 2 mM glutamine and 10 µg/ml insulin. Near confluent cells were UV irradiated with 10 mJ/cm^2. Immediately after irradiation cells were incubated with 10 uM antisense or nonsense BCL-2 oligonucleotides in suspension at […] for 30 minutes. Then cells were plated in tissue culture dishes in the presence or absence of NGF (50 ng/ml). Cells were supplemented with fresh oligonucleotides every 12 hours. Cell yield and BCL-2 level were determined 48 hours after irradiation. Cell yield was determined by counting cells in at least three representative field per each condition.

melanocytes = assay: NGF protection of melanocytes from beta-amyloid-induced cell death
Procedure: Melanocytes were maintained as above in hormone supplemented medium lacking hydrocortisone. Cells were supplemented with 25 microM of beta-amyloid 1-40 in the presence of 50 ng/ml NGS or diluent.
Photographs of representative fields were obtained and the percent of the live cells (spread) was determined 48 hours after addition of beta-amyloid and NFG or beta-amyloid and diluent. In the presence of beta-amyloid and diluent 77±8.5% appeared spread as compared to 96±1.4% in cultures supplemenbetated in beta-amyloid and NGF.

Keratinocytes = assay: Keratinocyte DNA fragmentation and cell yield after UV irradiation with NGF
Procedure: Keratinocytes were plated in 60 mm diameter tissue culture dishes in MCDB153 supplemented with epidermal growth factor (0.1 ng/ml human recombinant), insulin (5 microg/ml), hydrocortisone (0.5 microg/ml, calcium (0.15 mM), bovine pituitary extract (BPE), (2 ml per 500 ml medium), gentamicin (50 microg/ml), and amphotericin-B (50 ng/ml) (karetinocyte basal medium). Preconfluent cells were irradiated in phosphate buffered saline PBS) using a 1 KW xenon arc solar simulator (XMN 1000-21, Optical Radiation Corp., Azuza, Calif.) with 15 or 25 mJ/cm^2 UV through the petri dish plastic cover as described in Example 7. After UV irradiation, cells were maintained in their basal medium 3 days and processed as indicated. Sham irradiated control cultures were handled identically but placed under a dark cloth adjacent to the UV beam.
Cells were washed with cold PBS and disrupted in lysis buffer pH8 (10 mM tris, 150 mM NaCl, 0.1 mM EDTA, 1% SDS, 200 µg/ml proteinase K). After 15 hour incubation at […], samples were extracted twice with phenol plus chloroform (1:1, V/V) and precipitated overnight with ethanol (2.5×volume) and 3 M sodium acetate (1/10×volume). The DNA was then digested with DNAse free ribonuclease (10 microg/ml) for one hour at 37C, separated on 1% agarose gel and stained with ethidium bromide.
Keratinocytes were UV-irradiated as in Example 9. After irradiation cells were placed in fresh keratinocyte medium containing 50 ng/ml NGF or diluent alone. DNA fragmentation was determined as in Example 9. […] The standard (STD) is 100 bp DNA ladder (Gibco/BRL). […] UV irradiated keratinocytes were growth arrested as expected.

p75 NGF-R = assay: Northern blot of p75 NGF-R mRNA in NGF-supplemented melanocytes
[1] = NGF supplementation, preliminary data

Q: How did the “BCL-2 level in keratinocytes” value (Bcl-2 protein) turn out when “NGF: nerve growth factor, neurotrophin ligand of p75 NGF-R and trk” was run?
A: contributes, at least in part, to BCL-2 maintenance

Q: What about the “Cell yields of MM4 cells versus diluent alone” value (MM4 cells) of the same substance?
A: significantly higher

Q: And the “Cell yields, NGF plus nonsense oligonucleotides versus diluent plus nonsense” value (BCL-2)?
A: significantly higher

Q: What about the “Percent of live cells (spread)” value (melanocytes; 25 microM beta-amyloid 1-40 and 50 ng/ml NGF, 48 hours) of the same substance?
A: 96±1.4%

Q: And the “Cell yields of beta-amyloid-supplemented melanocytes” value (melanocytes; NGF addition, within 3-5 days)?
A: enhanced cell yields

Q: What about the “Bcl-2 levels in beta-amyloid treated cells” value (melanocytes; [1]) of the same substance?
A: increases Bcl-2 levels

Q: And the “Beta-amyloid-induced Bax upregulation” value (melanocytes; [1])?
A: decreases the beta-amyloid-induced Bax upregulation

Q: What about the “Appearance of beta-amyloid exposed melanocytes” value (melanocytes; in the presence of NGF) of the same substance?
A: appear healthy and spread on the dish surface

Q: And the “DNA fragmentation of UV irradiated keratinocytes” value (Keratinocytes; 50 ng/ml NGF)?
A: not fragmented

Q: And the “Increase in keratinocyte cell yields” value (Keratinocytes; NGF supplemented medium, within 5 days)?
A: 40%

Q: And the “Decrease in keratinocyte cell yield” value (Keratinocytes; UV irradiated, 50 ng/ml NGF, within 24 hours, diluent 50%)?
A: 30%

Q: And the “p75 NGF-R mRNA transcript levels versus diluent controls” value (p75 NGF-R)?
A: several-fold higher
